Assay results: ChEMBL document CHEMBL1152145, “The discovery of equipotent PPARalpha/gamma dual activators” (Bioorg Med Chem Lett, 2008)

Assays:
[1] = target: T1, Peroxisome proliferator-activated receptor alpha (Homo sapiens, UniProt Q07869)
T1 sequence (Q07869 whole entry): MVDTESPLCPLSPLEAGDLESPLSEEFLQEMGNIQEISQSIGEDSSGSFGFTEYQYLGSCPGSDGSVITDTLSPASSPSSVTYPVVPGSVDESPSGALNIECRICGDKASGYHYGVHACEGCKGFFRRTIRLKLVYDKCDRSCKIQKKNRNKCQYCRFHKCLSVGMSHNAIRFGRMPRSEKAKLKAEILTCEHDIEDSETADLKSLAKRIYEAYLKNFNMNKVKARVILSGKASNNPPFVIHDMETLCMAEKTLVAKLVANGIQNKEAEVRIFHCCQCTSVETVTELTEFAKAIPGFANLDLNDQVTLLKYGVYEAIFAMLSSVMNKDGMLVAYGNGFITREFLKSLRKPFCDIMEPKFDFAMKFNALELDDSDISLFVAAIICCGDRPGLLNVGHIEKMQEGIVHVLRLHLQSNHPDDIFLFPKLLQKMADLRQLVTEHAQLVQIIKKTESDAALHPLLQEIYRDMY
Description: Agonist activity at human PPARalpha receptor by cell based transient transfection assay

[2] = target: T2, Peroxisome proliferator-activated receptor gamma (Homo sapiens, UniProt P37231)
T2 sequence (P37231 whole entry): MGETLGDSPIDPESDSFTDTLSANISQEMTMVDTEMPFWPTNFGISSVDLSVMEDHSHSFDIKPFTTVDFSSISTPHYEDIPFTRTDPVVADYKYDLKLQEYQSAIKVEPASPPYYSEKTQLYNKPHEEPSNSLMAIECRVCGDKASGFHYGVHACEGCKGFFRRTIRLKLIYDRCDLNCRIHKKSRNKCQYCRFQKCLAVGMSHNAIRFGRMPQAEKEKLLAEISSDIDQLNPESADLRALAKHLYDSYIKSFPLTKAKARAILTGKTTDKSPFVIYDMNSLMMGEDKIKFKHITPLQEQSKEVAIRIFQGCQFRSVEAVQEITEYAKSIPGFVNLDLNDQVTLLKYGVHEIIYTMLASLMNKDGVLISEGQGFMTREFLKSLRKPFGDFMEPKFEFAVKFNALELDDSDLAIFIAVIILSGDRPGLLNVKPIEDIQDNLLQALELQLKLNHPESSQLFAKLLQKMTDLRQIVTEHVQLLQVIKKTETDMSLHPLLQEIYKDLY
Description: Agonist activity at human PPARgamma receptor by cell based transient transfection assay

[3] = target: T3, Peroxisome proliferator-activated receptor delta (Homo sapiens, UniProt Q03181)
T3 sequence (Q03181 whole entry): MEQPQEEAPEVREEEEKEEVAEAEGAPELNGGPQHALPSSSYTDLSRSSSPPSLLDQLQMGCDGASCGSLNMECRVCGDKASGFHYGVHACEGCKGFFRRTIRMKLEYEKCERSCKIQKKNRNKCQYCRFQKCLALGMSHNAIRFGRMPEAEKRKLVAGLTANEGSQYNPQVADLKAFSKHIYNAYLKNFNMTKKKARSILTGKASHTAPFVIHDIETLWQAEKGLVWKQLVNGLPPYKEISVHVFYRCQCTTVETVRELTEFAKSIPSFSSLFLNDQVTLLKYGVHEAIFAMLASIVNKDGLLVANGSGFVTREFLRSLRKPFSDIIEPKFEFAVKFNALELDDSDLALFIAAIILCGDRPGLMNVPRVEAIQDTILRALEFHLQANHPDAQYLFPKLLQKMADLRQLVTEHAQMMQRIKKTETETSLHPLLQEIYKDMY
Description: (§1) Agonist activity at human PPARdelta receptor by cell based transient transfection assay

[4] = target: T3, Peroxisome proliferator-activated receptor delta; remark: listed apart in the source
Description: as §1

[5] = target: T4, Peroxisome proliferator-activated receptor delta (Mus musculus, UniProt P35396)
T4 sequence (P35396 whole entry): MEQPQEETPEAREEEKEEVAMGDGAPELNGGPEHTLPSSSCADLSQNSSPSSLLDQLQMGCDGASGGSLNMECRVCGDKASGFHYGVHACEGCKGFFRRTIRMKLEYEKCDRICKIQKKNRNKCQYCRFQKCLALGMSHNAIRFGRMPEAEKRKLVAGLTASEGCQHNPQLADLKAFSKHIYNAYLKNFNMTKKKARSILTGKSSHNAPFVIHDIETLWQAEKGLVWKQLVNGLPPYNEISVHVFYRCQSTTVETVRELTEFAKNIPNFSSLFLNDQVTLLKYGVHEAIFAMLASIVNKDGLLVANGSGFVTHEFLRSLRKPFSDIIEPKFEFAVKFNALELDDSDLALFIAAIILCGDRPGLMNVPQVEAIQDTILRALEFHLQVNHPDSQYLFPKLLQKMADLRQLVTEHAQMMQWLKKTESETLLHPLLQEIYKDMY
Description: Agonist activity at mouse PPARdelta receptor by cell based transient transfection assay

[6] = target: T5, Peroxisome proliferator-activated receptor alpha (Mus musculus, UniProt P23204)
T5 sequence (P23204 whole entry): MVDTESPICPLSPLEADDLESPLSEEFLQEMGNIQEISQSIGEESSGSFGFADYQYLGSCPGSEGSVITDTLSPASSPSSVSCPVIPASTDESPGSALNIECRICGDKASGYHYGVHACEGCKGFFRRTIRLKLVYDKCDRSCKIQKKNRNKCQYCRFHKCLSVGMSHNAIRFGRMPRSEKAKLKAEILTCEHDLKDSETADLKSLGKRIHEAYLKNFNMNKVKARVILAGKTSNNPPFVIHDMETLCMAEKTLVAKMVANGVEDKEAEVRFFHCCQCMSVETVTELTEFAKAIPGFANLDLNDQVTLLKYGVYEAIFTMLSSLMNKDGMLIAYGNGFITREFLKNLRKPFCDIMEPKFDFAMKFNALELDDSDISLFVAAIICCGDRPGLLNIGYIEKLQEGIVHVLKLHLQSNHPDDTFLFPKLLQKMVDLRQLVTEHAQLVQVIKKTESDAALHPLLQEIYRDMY
Description: Agonist activity at mouse PPARalpha receptor by cell based transient transfection assay

[7] = target: T6, Peroxisome proliferator-activated receptor gamma (Mus musculus, UniProt P37238)
T6 sequence (P37238 whole entry): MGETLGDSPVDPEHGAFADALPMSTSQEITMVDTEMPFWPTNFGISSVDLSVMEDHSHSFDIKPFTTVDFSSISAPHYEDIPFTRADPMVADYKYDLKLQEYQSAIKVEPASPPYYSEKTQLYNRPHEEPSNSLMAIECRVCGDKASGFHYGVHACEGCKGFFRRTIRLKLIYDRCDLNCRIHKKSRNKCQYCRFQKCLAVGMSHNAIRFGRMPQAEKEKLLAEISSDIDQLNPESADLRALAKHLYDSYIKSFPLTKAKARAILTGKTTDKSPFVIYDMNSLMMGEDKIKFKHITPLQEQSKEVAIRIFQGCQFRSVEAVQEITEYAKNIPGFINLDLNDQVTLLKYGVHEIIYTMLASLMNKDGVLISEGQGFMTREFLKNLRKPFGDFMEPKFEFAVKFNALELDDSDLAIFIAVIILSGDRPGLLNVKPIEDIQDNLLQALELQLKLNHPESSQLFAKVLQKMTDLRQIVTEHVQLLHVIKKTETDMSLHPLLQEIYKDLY
Description: Agonist activity at mouse PPARgamma receptor by cell based transient transfection assay

[8] = Bioavailability in CD rat at […], iv and 5 mg/kg, po; assay type: ADME, organism-based; details: in vivo
[9] = tested on: Rattus norvegicus; experiment: Increase in liver weight in Zucker fatty (fa/fa) rat at 10 mg/kg, bid after 5 days; assay type: functional
[10] = tested on: Rattus norvegicus; experiment: Decrease in total triglyceride level in Zucker fatty (fa/fa) rat at 30 mg/kg, bid after 5 days; assay type: functional; parameters: scale not given: the % may be the effect or the level left
[11] = AUC in CD rat at 5 mg/kg, po; assay type: ADME, organism-based; parameters: dose 5 mg/kg, route oral; details: plasma
[12] = tested on: Rattus norvegicus; experiment: Decrease in insulin level in Zucker fatty (fa/fa) rat at 10 mg/kg, bid after 5 days; assay type: functional; parameters: scale not given: the % may be the effect or the level left
[13] = Cmax in CD rat at […], iv and 5 mg/kg, po; assay type: ADME, organism-based; details: in vivo
[14] = tested on: Rattus norvegicus; experiment: Decrease in insulin level in Zucker fatty (fa/fa) rat at 30 mg/kg, bid after 5 days; assay type: functional; parameters: scale not given: the % may be the effect or the level left
[15] = tested on: Rattus norvegicus; experiment: Decrease in total triglyceride level in Zucker fatty (fa/fa) rat at 10 mg/kg, bid after 5 days; assay type: functional; parameters: scale not given: the % may be the effect or the level left
[16] = Volume of distribution at steady state in CD rat at […], iv and 5 mg/kg, po; assay type: ADME, organism-based; details: in vivo, read-out: Vdss
[17] = tested on: Rattus norvegicus; experiment: Increase in liver weight in Zucker fatty (fa/fa) rat at 30 mg/kg, bid after 5 days; assay type: functional
[18] = Half life in CD rat at […], iv and 5 mg/kg, po; assay type: ADME, organism-based; details: in vivo
[19] = Clearance in CD rat at […], iv and 5 mg/kg, po; assay type: ADME, organism-based; details: in vivo

Structure (SMILES) | EC50 [1] | EC50 [2] | EC50 [3] | also measured
Cc1nc(-c2ccc(C(C)(C)C)cc2)sc1C(=O)NCc1ccc(OC(C)(C)C(=O)O)cc1 | 4 nM | 800 nM | 10000 nM | 
Cn1nc(-c2ccc(C(C)(C)C)cc2)cc1C(=O)NCc1ccc(OC(C)(C)C(=O)O)cc1 | 160 nM | 1000 nM |  | EC50 [4]: 10000 nM
Cc1cc(CNC(=O)c2cc(-c3ccc(C(C)C)cc3)n(C)n2)ccc1OC(C)(C)C(=O)O |  | 8 nM | 4850 nM | EC50 [5]: 7100 nM; EC50 [6]: 280 nM; EC50 [7]: 16 nM
Cc1cc(CNC(=O)c2cc(-c3ccc(CC(C)C)cc3)nn2C)ccc1OC(C)(C)C(=O)O | 45 nM | 50 nM | 2870 nM | 
CCn1nc(C(=O)NCc2ccc(OC(C)(C)C(=O)O)c(C)c2)cc1-c1ccc(C(C)(C)C)cc1 | 10 nM | 15 nM | > 25000 nM | EC50 [5]: > 25000 nM; EC50 [6]: 2260 nM; EC50 [7]: 36 nM
C=CCn1nc(-c2ccc(C(C)(C)C)cc2)cc1C(=O)NCc1ccc(OC(C)(C)C(=O)O)c(C)c1 | 45 nM | 60 nM |  | 
Cc1cc(CNC(=O)c2cc(-c3ccc(C(C)C)cc3)nn2C)ccc1OC(C)(C)C(=O)O | 20 nM | 50 nM | 1360 nM | 
Cc1cc(CNC(=O)c2cc(-c3ccc(N4CCOCC4)cc3)n(C)n2)ccc1OC(C)(C)C(=O)O | 85 nM | 110 nM | 35 nM | 
Cc1cc(CNC(=O)c2cc(-c3ccc(-c4ccccc4C)cc3)n(C)n2)ccc1OC(C)(C)C(=O)O | 90 nM | 30 nM |  | EC50 [5]: > 25000 nM; EC50 [6]: 1800 nM; EC50 [7]: 60 nM
COc1cc(CNC(=O)c2cc(-c3ccc(C(C)(C)C)cc3)n(C)n2)ccc1OC(C)(C)C(=O)O | > 25000 nM | 176 nM | > 25000 nM | 
COc1cc(CNC(=O)c2cc(-c3ccc(CC(C)C)cc3)n(C)n2)ccc1OC(C)(C)C(=O)O | > 25000 nM |  | > 25000 nM | 
C=CCOc1ccc(-c2cc(C(=O)NCc3ccc(OC(C)(C)C(=O)O)c(C)c3)nn2C)cc1 |  |  | > 25000 nM | 
Cc1cc(CNC(=O)c2cc(-c3ccc(OCc4ccccc4)cc3)n(C)n2)ccc1OC(C)(C)C(=O)O | > 25000 nM | 80 nM | > 25000 nM | 
CCn1nc(-c2ccc(C(C)(C)C)cc2)cc1C(=O)NCc1ccc(OC(C)(C)C(=O)O)c(C)c1 | 50 nM | 30 nM | 2700 nM | 
Cc1cc(CNC(=O)c2cc(-c3ccc(N4CCCC4)cc3)n(C)n2)ccc1OC(C)(C)C(=O)O | 8 nM |  |  | 
Cc1cc(CNC(=O)c2cc(-c3ccc(C(C)(C)C)cc3)n(Cc3ccccc3)n2)ccc1OC(C)(C)C(=O)O | 200 nM |  | 25000 nM | 
CCn1nc(C(=O)NCc2ccc(OC(C)(C)C(=O)O)c(OC)c2)cc1-c1ccc(C(C)(C)C)cc1 | > 25000 nM | 190 nM | > 25000 nM | 
C=CCn1nc(C(=O)NCc2ccc(OC(C)(C)C(=O)O)c(C)c2)cc1-c1ccc(C(C)(C)C)cc1 |  |  |  | EC50 [5]: > 25000 nM; EC50 [6]: 6000 nM; EC50 [7]: 150 nM
Cc1cc(CNC(=O)c2cc(-c3ccc(C(C)(C)C)cc3)n(C)n2)ccc1OC(C)(C)C(=O)O | 10 nM |  | > 10000 nM | bioavailability [8]: 22%; Activity [9]: 9%; Activity [10]: 45%; EC50 [5]: > 25000 nM; AUC [11]: 1790 ng·h/mL; Activity [12]: 10%; Cmax [13]: 1130 ng/mL; Activity [14]: 35%; Activity [15]: 57%; EC50 [6]: 640 nM; Vd [16]: 0.3 L/kg; EC50 [7]: 11 nM; Activity [17]: 14%; half-life [18]: 49.8 min; clearance [19]: 17 mL/min/kg
